These are literature values, as cited in publication PMC11477967, “Review of the Structural Characteristics and Biological Activities of Tricholoma Secondary Metabolites (2018–2023)” (Molecules, 2024).

The term IC50 denotes the point on the concentration scale where inhibition reaches its midpoint.

For series [1], the system named is MCF-7.
Series [2] relates to nitric oxide (NO) production in lipopolysaccharide (LPS)-induced RAW264.7 macrophages. As to conditions: for Bioactivities: Anti-inflammatory activity: Table 1 summary; for IC50: LPS-induced RAW264.7 macrophages.
Another series relates to human tumor cell lines. Further details: method as in PMID 29758519, PMID 32534274, PMID 26186257. Particulars: Table 1 summary.
For the next series, the system named is SMMC-7721. Also noted: method as in PMID 29758519, PMID 32534274.
In the next series the test system is SW480. Further details: method as in PMID 29758519, PMID 32534274.
In the next series the test system is Caki-1. Further details: method as in doi:10.1177/1934578X1801300901.
In the next series the test system is Hep G2. Further details: method as in doi:10.1177/1934578X1801300901. Particulars: said to surpass shikonin.
A further series deals with WISH. Further details: method as in doi:10.1177/1934578X1801300901.
Another series has as its system human cancer cell lines. Particulars: for Bioactivities: Cytotoxic against human cancer cell lines: Table 1 summary.
The subject of a further series is A549. Also noted: method as in doi:10.1177/1934578X1801300901. As to conditions: said to surpass shikonin.
The subject of series [3] is MCF-7. Also noted: method as in doi:10.1177/1934578X1801300901.
The next series concerns bacteria. Also noted: method as in PMID 32534274, PMID 26186257, PMID 34604687, PMID 28794307. As to conditions: Table 1 summary.

Molecules are shown by their SMILES. Bounds are passed on as bounds.

Consider `COC(=O)C(Cc1ccccc1)NC(=O)CC(C)(O)CC(=O)OC1C(O)CC2(C)C3=C(CCC2C1(C)C)C1(C)CCC(C(C)CCC(O)C(C)(C)O)C1(C)C(O)C3` (centres unmarked) [Compound 2, pardinol B], for which the IC50 with MCF-7 [1], in the series with HL-60, with SMMC-7721, in the series on A-549 and in the series with SW480 was less than 40 µM each time. In series [2], the “Bioactivities: Anti-inflammatory activity” value is recorded as “Anti-inflammatory activity”. In addition, in the series with human tumor cell lines, the “Bioactivities: Anti-cancer activity” value was “Anti-cancer activity”.

Take `COC(=O)C(NC(=O)CC(C)(O)CC(=O)OC1CC2(C)C3=C(CCC2C(C)(C)C1O)C1(C)CCC(C(C)CCC(O)C(C)(C)O)C1(C)C(O)C3)C(OC(C)=O)c1ccccc1` (centres unmarked) [Compound 5, pardinol E]: in [2], the “Bioactivities: Anti-inflammatory activity” value is “Anti-inflammatory activity”. Also, the “Bioactivities: Anti-cancer activity” value in the series on human tumor cell lines was “Anti-cancer activity”.

Consider `COC(=O)C(NC(=O)CC(C)(O)CC(=O)OC1C(O)CC2(C)C3=C(CCC2C1(C)C)C1(C)CCC(C(C)CCC(O)C(C)(C)O)C1(C)C(O)C3)C(OC(C)=O)c1ccccc1` (centres unmarked) [Compound 6, pardinol F], for which the “Bioactivities: Anti-inflammatory activity” value in [2] is “Anti-inflammatory activity”. Also, the “Bioactivities: Anti-cancer activity” value in the series with human tumor cell lines is listed as “Anti-cancer activity”.

In the case of `COC(=O)C(NC(=O)CC(C)(O)CC(=O)OC1C(O)CC2(C)C3=C(CCC2C1(C)C)C1(C)CCC(C2CCC(C(C)(C)O)OC2O)C1(C)C(O)C3)C(O)c1ccccc1` (centres unmarked) [Compound 7, pardinol G], in series [2], the “Bioactivities: Anti-inflammatory activity” value is “Anti-inflammatory activity”. The “Bioactivities: Anti-cancer activity” value in the series on human tumor cell lines was “Anti-cancer activity”.

`COC(=O)C(NC(=O)CC(C)(O)CC(=O)OC1C(O)CC2(C)C3=C(CCC2C1(C)C)C1(C)CCC(C2CCC(C(C)(C)O)OC2O)C1(C)C(O)C3)C(OC(C)=O)c1ccccc1` (centres unmarked) [Compound 8, pardinol H]: in series [2], the “Bioactivities: Anti-inflammatory activity” value is recorded as “Anti-inflammatory activity”. In addition, the “Bioactivities: Anti-cancer activity” value with human tumor cell lines was “Anti-cancer activity”.

With `C=C(CCC(C)C1CCC2(C)C3=C(CC(O)C12C)C1(C)CCC(OC(=O)CC(=O)OC)C(C)(C)C1CC3)C(C)C(=O)O` [Compound 16, (25S)-(+)-12α-hydroxy-3α-methylcarboxyacetate-24-methyllanosta-8,24(31)-diene-26-oic acid], the “Bioactivities: Anti-cancer activity” value in the series with human tumor cell lines is “Anti-cancer activity”.

Turning to `CC(C)C(C)C=CC(C)C1CCC2C3(O)C=CC4=CC(=O)CCC4(C)C3CCC12C` (centres unmarked) [Compound 26, isocyathisterol], the concentration for half-maximal inhibition (IC50) with MCF-7 [1], in the series on HL-60, in the series with SMMC-7721, in the series with A-549 and in the series with SW480 was less than 40 µM each time. Moreover, in the series with human tumor cell lines, the “Bioactivities: Anti-cancer activity” value is reported as “Anti-cancer activity”.

`CC(C)[C@@H](C)/C=C/[C@@H](C)[C@H]1CC(=O)[C@H]2C3=C(CC[C@@]21C)[C@@]1(C)CC[C@H](O)CC1=CC3=O` [Compound 29, 3β-hydroxyl-(22E,24R)-ergosta-5,8,22-trien-7,15-dione]: in the series with HL-60, the IC50 was less than 10 µM. For the same molecule, the “Bioactivities: Anti-cancer activity” value in the series with human tumor cell lines is listed as “Anti-cancer activity”.

Consider `CC(C)[C@@H](C)/C=C/[C@@H](C)[C@H]1CC[C@H]2C3=C(CC[C@]12C)[C@@]1(C)CC[C@H](O)CC1=CC3=O` [Compound 30, 3β-hydroxyl-(22E,24R)-ergosta-5,8,22-trien-7-one], for which, in the series on HL-60, the IC50 was less than 10 µM. In the series with human tumor cell lines, the “Bioactivities: Anti-cancer activity” value is given as “Anti-cancer activity”.

As to `CC(C)[C@@H](C)/C=C/[C@@H](C)[C@H]1C[C@H](O)C2=C3C(=O)C=C4C[C@@H](O)CC[C@]4(C)[C@H]3CC[C@@]21C` [Compound 32, 3β,15α-dihydroxyl-(22E,24R)-ergosta-5,8(14),22-trien-7-one], the half-inhibitory concentration (IC50) in the series on MCF-7 [1], in the series with HL-60, with SMMC-7721, with A-549 and with SW480 was less than 40 µM each time. Also, the “Bioactivities: Anti-cancer activity” value in the series on human tumor cell lines is reported as “Anti-cancer activity”.

Take `CC(C)[C@@H](C)/C=C/[C@@H](C)[C@H]1CC(=O)C2=C3C(=O)C=C4C[C@@H](O)CC[C@]4(C)[C@H]3CC[C@@]21C` [Compound 34, 3β-hydroxyl-(22E,24R)-ergosta-5,8(14),22-trien-7,15-dione]: in the series with human tumor cell lines, the “Bioactivities: Anti-cancer activity” value is “Anti-cancer activity”.

Take `CC(C)[C@@H](C)/C=C/[C@@H](C)[C@H]1CC[C@H]2C3=C(CC[C@]12C)[C@@]1(C)CC[C@H](O)C[C@@]12O[C@H]2[C@@H]3O` [Compound 35, 5α,6α-epoxy-(22E,24R)-ergosta-8,22-diene-3β,7β-diol]: the “Bioactivities: Anti-cancer activity” value in the series with human tumor cell lines was “Anti-cancer activity”.

With `CC(C)C(C)C=CC(C)C1CCC2C3=CC(=O)OC3(O)CCC21C` (centres unmarked) [Compound 41, demethylincisterol A3], the 50% inhibitory concentration (IC50) in the series with MCF-7 [1], in the series with HL-60, with SMMC-7721, with A-549 and in the series with SW480 was less than 40 µM throughout. The “Bioactivities: Anti-cancer activity” value in the series on human tumor cell lines is recorded as “Anti-cancer activity”.

Regarding `COC12CCC3(C)C(CCC3C(C)C=CC(C)C(C)C)C1=CC(=O)O2` (centres unmarked) [Compound 42, volemolide], the half-inhibitory concentration (IC50) in the series on MCF-7 [1], with HL-60, with SMMC-7721 and in the series with SW480 was less than 40 µM in each case. Further, the “Bioactivities: Anti-cancer activity” value with human tumor cell lines is given as “Anti-cancer activity”.

For the molecule `CC(C)[C@@H](C)/C=C/[C@@H](C)[C@@H](CC(=O)O)[C@@]1(C)CCC2=C(C1=O)[C@H](O)[C@@H]1O[C@@]13C[C@@H](O)CC[C@]23C` [Compound 46, tricholosterol A], in [2], the half-maximal inhibitory concentration (IC50) is 27.6 µM and the “Bioactivities: Anti-inflammatory activity” value is “Anti-inflammatory activity”.

Turning to `CC(C=CC(C)(O)C1CC(O)C2C3=CC(=O)OC3=CCC21C)C(C)(C)O` (centres unmarked) [Compound 49, tricholosterol D], in [2], the half-inhibitory concentration (IC50) is 31.8 µM and the “Bioactivities: Anti-inflammatory activity” value is recorded as “Anti-inflammatory activity”.

Take `C=C1CCC(CC=C2CCC3(OC2)OC2(O)CCC3(C)OC2(C)C)C(C)(C)C1C(O)C=C1CCOC1=O` (centres unmarked) [Compound 55, saponaceolide T]: the “antiproliferative effects” value in the series on Caki-1, with Hep G2, in the series on WISH, in the series with A549 and in the series with MCF-7 [3] was “strong antiproliferative effects” throughout. Moreover, the “Bioactivities: Cytotoxic against human cancer cell lines” value (“Bioactivities: Cytotoxic” for short) in the series with human cancer cell lines is recorded as “Cytotoxic against human cancer cell lines”.

`C=C1CCC(CCC2CCC3(OC2)OC2(O)CCC3(C)OC2(C)C)C(C)(C)C1C(O)C=C1C(=O)OCC1O` (centres unmarked) [Compound 58, saponaceolide C]: the “antiproliferative effects” value with Caki-1, in the series with Hep G2, with WISH, in the series with A549 and in the series on MCF-7 [3] was “strong antiproliferative effects” each time. Besides, the “Bioactivities: Cytotoxic” value in the series on human cancer cell lines is reported as “Cytotoxic against human cancer cell lines”.

`C=C1CCC(CCC2CCC3(OC2)OC2(O)CCC3(C)OC2(C)C)C(C)(C)C1C(O)C=C1CCOC1=O` (centres unmarked) [Compound 61, saponaceolide H]: the “antiproliferative effects” value in the series on Caki-1, in the series on Hep G2, in the series with WISH, with A549 and in the series with MCF-7 [3] was “strong antiproliferative effects” throughout. In the series on human cancer cell lines, the “Bioactivities: Cytotoxic” value is “Cytotoxic against human cancer cell lines”. The “cytotoxicity rank” value with human cancer cell lines (among 55, 56, 58, 60, 61, cell line not specified) is reported as “most significant cytotoxicity”.

For the molecule `C=C1CC[C@@H](CCO)C(C)(C)[C@H]1C/C=C1/C(=O)OC[C@@H]1O` [Compound 70, tricholopardin B], in series [2], the half-maximal inhibitory concentration (IC50) was 16.2 µM and the “Bioactivities: Anti-inflammatory activity” value is on record as “Anti-inflammatory activity”.

As for `CCC1(O)OCC(N2C(=O)CCC2OC)C2=C1C(OC)CC2OC(=O)CC(C)C` (centres unmarked) [Compound 84, pardinumone A], the “Bioactivities: Antibacterial activity” value with bacteria is given as “Antibacterial activity”.

In the case of `CCC1(O)OCC(N2C(=O)CCC2OC)C2=C1C(OC)CC2OC(=O)CC(C)C` (centres unmarked) [Compound 85, pardinumone B], the “Bioactivities: Antibacterial activity” value in the series on bacteria was “Antibacterial activity”.

For `CC=C1OCC(NC(=O)CCC(N)C(=O)O)C2=C1C(OC)CC2OC(=O)CC(C)C` (centres unmarked) [Compound 86, pardinumone C], in the series on bacteria, the “Bioactivities: Antibacterial activity” value is recorded as “Antibacterial activity”.

`CCC(=O)C1=C(C(COC(C)=O)NC(=O)CCC(N)C(=O)O)C(OC(=O)CC(C)C)CC1OC` (centres unmarked) [Compound 87, pardinumone D]: the “Bioactivities: Antibacterial activity” value in the series with bacteria is on record as “Antibacterial activity”.
